Holding throughout (assay type): cell-based
The subject of assay [1] is Meiothermus silvanus biofilms. Kind of assay: Removal of existing (preformed) biofilm, 96-microwell plate with peg lids, Crystal Violet staining. To be noted: SPW, 45° C., 150 rpm; for Biofilm quantity after 24 h pre-growth and 24 h contact time, Abs. at 595 nm / Biofilm reduction after 24 h pre-growth and 24 h contact time: separated isomer. The source says:
(§1) Pure cultures of Meiothermus silvanus, a microbe species commonly found in paper machine biofilms (Ekman J, Journal of Industrial Microbiology & Biotechnology 34:203-211) and Pseudoxanthomonas taiwanensis, another species commonly found in paper machine environments (Desjardins, E & Beaulieu, C, Journal of Industrial Microbiology & Biotechnology 30:141-145) were used to study the efficacy of various chemicals to prevent biofilm formation.
(§2) Biofilm tests were done in either synthetic commercial R2-broth (Lab M Ltd, UK) or fibre-containing synthetic paper machine water, SPW (prepared according to Peltola et al., J. Ind. Microbiol. Biotechnol. 2011, 38: 1719-1727) using 96-microwell plate wells with peg lids (Thermo Fischer Scientific Inc., USA). Plates were incubated at 45° C. with a rotary shaking (150 rpm) providing high flow in each well.
(§3) For experiments of removing already existing (preformed) biofilm wells of 96-microwell plates with peg-lids were filled with SPW, inoculated with the pure bacterial cultures. Biofilm was grown for 24 hours without addition of any chemical compound to be tested. In some experiments after 24 hours the procedure was repeated by emptying the wells and by addition of a fresh solution of SPW inoculated with pure bacterial culture, again without any test chemical compound. The original peg-lid was put back in place and biofilm was allowed to grow for additional 24 h, i.e., in total 48 h.
(§4) After 24 or 48 hours after starting the test, the wells were emptied and a fresh solution of SPW, inoculated with the pure bacterial cultures and with different amounts of chemical compounds to be tested were added and the original peg-lid was placed back in place. After an additional 2 or 24 hours the wells were emptied, rinsed and the peg lid and wells were left to dry.
(§5) The amount of biofilm formed on the microwells, and peg surfaces was quantified with a staining solution by adding 200 μl of 1% Crystal Violet (Merck Millipore KGaA, Germany) in methanol to each well and placing the peg-lid back on. After 3 minutes the wells were emptied, and the wells and pegs were rinsed 3 times with tap water. The attached Crystal Violet was dissolved into ethanol and the absorbance at 595 nm was measured. The values shown in the following tables are average absorbance from 8 replicate wells and pegs.
(§6) All absorbance values in Examples 1-6 are given actual measured values. In calculation for biofilm reduction percentages it was taken in account that the SPW alone for 2 days without any bacterial inoculum gave a background value of 0.14.

Assay [2] concerns Pseudoxanthomonas taiwanensis biofilms. The assay is described as follows: Prevention of biofilm formation, 96-microwell plate with peg lids, Crystal Violet staining. To be noted: for Biofilm quantity after 48 h contact time, Abs. at 595 nm / Biofilm reduction after 48 h contact time: SPW, 45° C., 150 rpm.
Excerpt: as §1, §2
(§7) For experiments of preventing biofilm formation wells of 96-microwell plates with peg-lids were filled with R2-broth or SPW, inoculated with the pure bacterial cultures and treated with different amounts of chemical compounds to be tested. Peg-lid was put on. After 24 hours the wells were emptied and a fresh solution of pure culture containing SPW or R2 broth with different amounts of test chemicals were added to the wells and the original peg-lid was put back in place. After an additional 24 hours, i.e., 48 hours after starting the test, the wells were emptied, rinsed and the peg lid and wells were left to dry.
as §5, §6

The subject of assay [3] is Meiothermus silvanus biofilms. The description is as above. Particulars: for Biofilm quantity after 48 h contact time, Abs. at 595 nm / Biofilm reduction after 48 h contact time / Biofilm quantity after 48 h contact time in SPW, Abs. at 595 nm / Biofilm reduction after 48 h contact time in SPW: SPW; for Biofilm quantity after 48 h contact time, Abs. at 595 nm / Biofilm reduction after 48 h contact time: 45° C., 150 rpm.
Excerpt: as §1, §2, §7, §5, §6

Assay [4] deals with Pseudoxanthomonas taiwanensis biofilms. Kind of assay: Removal of existing (preformed) biofilm, 96-microwell plate with peg lids, Crystal Violet staining. To be noted: SPW; for Biofilm quantity after 48 h pre-growth and 24 h contact time, Abs. at 595 nm / Biofilm reduction after 48 h pre-growth and 24 h contact time: 45° C., 150 rpm.
Excerpt: as §1, §2, §3, §4, §5, §6

Setting [5] is: separated isomer, dosage 0.1 mg/l active.
Setting [6] is: separated isomer, dosage 0.2 mg/l active.
Setting [7] is: Compound B dosage 0.25 mg/l active.
The mark [8] stands for this setting: Compound B dosage 1 mg/l active.
Setting [9] is: Compound B dosage 3 mg/l active.
The mark [10] stands for this setting: Compound B dosage 10 mg/l active.
Setting [11] is: Compound B dosage 0.1 mg/l active.

In the case of `Cc1ccc(S(=O)(=O)C=CC#N)cc1` [Z-isomer of Compound A, 3-[(4-methylphenyl)sulfonyl]-2-propenenitrile], the “Biofilm quantity after 24 h pre-growth and 24 h contact time, Abs. at 595 nm” value in assay [1] (dosage 0.2 mg/l active) was 0.81; in assay [1] (dosage 1 mg/l active), 0.27. The entries for the “Biofilm reduction after 24 h pre-growth and 24 h contact time” value in assay [1] (dosage 0.2 mg/l active) and in assay [1] (dosage 1 mg/l active) were 71.3% and 94.6%, respectively. Further, the “Biofilm quantity after 48 h contact time, Abs. at 595 nm” value in assay [2] (setting [5]) amounted to 0.16; in assay [2] (setting [6]) it was 0.16; in assay [3] (setting [5]), 0.16; in assay [3] (setting [6]) it was 0.15. Moreover, the “Biofilm reduction after 48 h contact time” value in assay [2] (setting [5]) is 99.3%; in assay [2] (setting [6]), 99.3%; in assay [3] (setting [5]), 99.1%; in assay [3] (setting [6]), 99.4%.
`Nc1ccc(S(=O)(=O)Nc2nccs2)cc1` [Compound B, 4-amino-N-2-thiazolyl-benzenesulphonamide]: the “Biofilm quantity after 48 h contact time, Abs. at 595 nm” value is listed as 2.35 in assay [2] (setting [7]); 2.04 in assay [2] (setting [8]); 0.84 in assay [2] (setting [9]); 0.54 in assay [2] (setting [10]); 0.62 in assay [3] (setting [11]); 0.18 in assay [3] (setting [7]). Moreover, the “Biofilm quantity after 48 h contact time, Abs. at 595 nm” value in assay [3] (setting [8]) was 0.15; in assay [3] (setting [9]), 0.16; in assay [3] (setting [10]), 0.18. In addition, the “Biofilm reduction after 48 h contact time” value in assay [2] (setting [7]) turned out to be 2.6%; in assay [2] (setting [8]) it was 16.3%; in assay [2] (setting [9]), 69.3%; in assay [2] (setting [10]), 82.4%; in assay [3] (setting [11]), 34.4%; in assay [3] (setting [7]), 94.0%. Moreover, the entries for the “Biofilm reduction after 48 h contact time” value in assay [3] (setting [8]), in assay [3] (setting [9]) and in assay [3] (setting [10]) were 99.1%, 97.9% and 94.0%, respectively.
Turning to Gramicidin [reference compound], the figures for the “Biofilm quantity after 48 h contact time in SPW, Abs at 595 nm” value in assay [2] (Gramicidin dosage 3 mg/l), in assay [2] (Gramicidin dosage 10 mg/l) and in assay [2] (Gramicidin dosage 25 mg/l) were 2.25, 2.41 and 2.42, respectively. Besides, the “Biofilm reduction after 48 h contact time in SPW” value in assay [2] (Gramicidin dosage 3 mg/l) was 5.4%; in assay [2] (Gramicidin dosage 10 mg/l) it was −1.8%; in assay [2] (Gramicidin dosage 25 mg/l), −2.2%; in assay [3] (Gramicidin dosage 0.2 mg/l) it was 2.5%; in assay [3] (Gramicidin dosage 1 mg/l), −4.1%; in assay [3] (Gramicidin dosage 3 mg/l), 74.6%. Also, the “Biofilm reduction after 48 h contact time in SPW” value in assay [3] (Gramicidin dosage 10 mg/l) was found to be 95.9%. Besides, the “Biofilm quantity after 48 h contact time in SPW, Abs. at 595 nm” value is 1.33 in assay [3] (Gramicidin dosage 0.2 mg/l), 1.41 in assay [3] (Gramicidin dosage 1 mg/l), 0.45 in assay [3] (Gramicidin dosage 3 mg/l) and 0.19 in assay [3] (Gramicidin dosage 10 mg/l).
As for `Cc1ccc(S(=O)(=O)C=CC#N)cc1` [E-isomer of Compound A, 3-[(4-methylphenyl)sulfonyl]-2-propenenitrile], the “Biofilm quantity after 24 h pre-growth and 24 h contact time, Abs. at 595 nm” value in assay [1] (dosage 0.2 mg/l active) is recorded as 0.90; in assay [1] (dosage 1 mg/l active) it was 0.26. Moreover, the “Biofilm reduction after 24 h pre-growth and 24 h contact time” value in assay [1] (dosage 0.2 mg/l active) is reported as 67.6%; in assay [1] (dosage 1 mg/l active) it was 95.0%. The “Biofilm quantity after 48 h contact time, Abs. at 595 nm” value in assay [2] (setting [5]) amounted to 0.36; in assay [2] (setting [6]), 0.16; in assay [3] (setting [5]) it was 0.40; in assay [3] (setting [6]), 0.16. In addition, the “Biofilm reduction after 48 h contact time” value is 90.6% in assay [2] (setting [5]), 99.1% in assay [2] (setting [6]), 88.9% in assay [3] (setting [5]) and 99.3% in assay [3] (setting [6]).
With `N#CC(Br)(Br)C(N)=O` [DBNPA, 2,2-dibromo-3-nitrilopropionamide, reference compound], in assay [3] (active compound, synthetic paper machine water, high temperature, fibres present, high flow), the “dosage required to reach same (over 90%) biofilm reduction efficacy” value stood at 1 mg/L.
Take `Cc1ccc(S(=O)(=O)C=CC#N)cc1` [Compound A, 3-[(4-methylphenyl)sulfonyl]-2-propenenitrile]: the entries for the “Biofilm quantity after 48 h pre-growth and 24 h contact time, Abs. at 595 nm” value in assay [4] (dosage 0.2 mg/l active) and in assay [4] (dosage 0.5 mg/l active) were 1.73 and 0.13, respectively. For the same compound, the “Biofilm reduction after 48 h pre-growth and 24 h contact time” value stood at 32.2% in assay [4] (dosage 0.2 mg/l active) and 100.2% in assay [4] (dosage 0.5 mg/l active). Besides, the “removal of already formed biofilm (in words)” value in assay [4] (single dosage of 0.5 mg/l active compound, 48-hour pre-growth, 24 hours after addition) is given as “removed all of the biofilm”. The “Biofilm quantity after 48 h pre-growth and 2 h contact time, Abs. at 595 nm” value is listed as 1.20 in assay [1] (dosage 0.5 mg/l active), 1.11 in assay [1] (dosage 1 mg/l active) and 0.99 in assay [1] (dosage 2 mg/l active). Moreover, the “Biofilm reduction after 48 h pre-growth and 2 h contact time” value in assay [1] (dosage 0.5 mg/l active) was 8.0%; in assay [1] (dosage 1 mg/l active), 16.3%; in assay [1] (dosage 2 mg/l active), 26.6%. Moreover, the “Biofilm quantity after 48 h contact time, Abs. at 595 nm” value in assay [2] (dosage 0.01 mg/l active) turned out to be 1.42; in assay [2] (dosage 0.03 mg/l active), 1.26; in assay [2] (dosage 0.08 mg/l active), 0.88; in assay [2] (dosage 0.13 mg/l active), 0.55; in assay [2] (dosage 0.20 mg/l active), 0.39; in assay [3] (dosage 0.01 mg/l active) it was 0.80. Further, the “Biofilm quantity after 48 h contact time, Abs. at 595 nm” value in assay [3] (dosage 0.03 mg/l active) was found to be 0.75; in assay [3] (dosage 0.08 mg/l active) it was 0.58; in assay [3] (dosage 0.13 mg/l active), 0.22; in assay [3] (dosage 0.20 mg/l active), 0.15. Further, the “Biofilm reduction after 48 h contact time” value in assay [2] (dosage 0.01 mg/l active) amounted to 4.5%; in assay [2] (dosage 0.03 mg/l active), 16.4%; in assay [2] (dosage 0.08 mg/l active), 44.8%; in assay [2] (dosage 0.13 mg/l active) it was 69.4%; in assay [2] (dosage 0.20 mg/l active), 81.3%; in assay [3] (dosage 0.01 mg/l active) it was 21.4%. Moreover, the “Biofilm reduction after 48 h contact time” value came out at 27.4% in assay [3] (dosage 0.03 mg/l active), 47.6% in assay [3] (dosage 0.08 mg/l active), 90.5% in assay [3] (dosage 0.13 mg/l active) and 98.8% in assay [3] (dosage 0.20 mg/l active). Further, the biofilm reduction effect result in assay [3] (dosage of 0.13 mg/l active, synthetic paper machine water, high temperature, fibres present, high flow) is “over 90%”.

The record behind these values is US20220361497A1, “METHOD FOR CONTROLLING GROWTH OF MICROORGANISMS AND/OR BIOFILMS IN AN INDUSTRIAL PROCESS” (Kemira Oyj, priority 2017, published 2022).
